The subject of data set [1] is optically-induced postsynaptic currents (oPSC) in the NAc. Description: Whole-cell patch clamp of optically-induced postsynaptic currents in NAc slices. Also on record: species or system mouse. The conditions noted are these: bath applied NBQX and APV together. The protocol: Mice (n=3 males) that were previously injected with ChR2 in the BLA were deeply anesthetized with isoflurane before decapitation and brain extraction. Coronal 250 μm thick sections were collected in ice cold 95% oxygen, 5% carbon dioxide-bubbled modified artificial cerebrospinal fluid (aCSF, 194 mM sucrose, 30 mM NaCl, 4.5 mM KCl, 1 mM MgCl2, 26 mM NaHCO3, 1.2 mM NaH2PO4, and 10 mM D-glucose) before incubating at 32° C. for 30 min in aCSF (124 mM NaCl, 4.5 mM KCl, 2 mM CaCl2), 1 mM MgCl2, 26 mM NaHCO3, 1.2 mM NaH2PO4, and 10 mM D-glucose). Slices were then stored at room temperature until recording.
Slices were hemisected, placed into a recording chamber, and perfused with temperature controlled aCSF (29-31° C.). NAc medium spiny neurons (MSNs) were visualized using infrared differential interference contrast light microscopy, Q-capture camera, and associated Pro 7 software. […] Optically evoked post synaptic currents (oPSC) were elicited by an optical fiber placed in the recording chamber that delivered 4 ms pulses of light (473 nm) every 20s for a total recording duration of 15 min. oPSCs were recorded using borosilicate glass pipettes (2-4 MΩ resistance) filled with Cesium Methanesulfonate internal solution (135 mM cesium methanesulfonate, 3 mM NaCl, 10 mM HEPES, 0.6 mM EGTA, 4 mM MgATP, 0.3 mM NaGTP, 5 mM QX-314C1, pH 7.2, 310 mOsm). […]

For data set [2] the following is noted: in vivo; cited from earlier work.
Data set [3] can be described thus: Pharmacokinetic assessment of the DHED-acetate prodrug, IV and PO. The class given is in vivo, mouse. The protocol: FIGS. 29A-29B illustrate the pharmacokinetic assessment of the DHED-acetate prodrug. The concentration levels of the DHED-acetate prodrug (FIG. 29A) and DHED (FIG. 29B) were measured in mice (n=3) after IV and PO administration of 5 mg/kg solution dose of DHED-acetate prodrug.
Pharmacokinetic (PK) assessment of prodrugs. […] Generally, this PK study and analysis proceeds similarly to previous studies aimed at assessing the oral bioavailability of (2R,6R)-HNK. As in previous data with DHED (FIGS. 6A-6B), male C57BL/6J mice (n=6/time point) receive 200 μg of prodrug in 0.9% (20% cyclodextrin) administered either IV or PO. Plasma and brain are collected at 5 min, 15 min, 30 min, 1 h, and 4 h after administration. PK is performed using tandem liquid chromatography-mass spectrometry (LC-MS/MS) for quantification. Pharmacokinetic analysis is performed using Phoenix WinNonLin. Non-compartmental analysis is performed to determine the following parameters: C0 (Back-extrapolated concentration at time 0); Cmax (Maximum observed concentration); Tmax (time of maximum observed concentration); AUC0-t (Area under the concentration-time curve from hour 0 to the last measurable concentration, estimated by the linear trapezoidal rule). Statistical significance is calculated using the unpaired t-test or Mann-Whitney U test for comparing AUC values. Importantly, pharmacokinetic measurements observe both the level of the prodrug and free DHED moiety in the plasma. A critical comparison is measuring the DHED levels after administration of the prodrug compared to after administration of DHED itself. […] E2 levels are measured with liquid chromatography tandem mass spectrometry (LC-MS/MS) using standard methods. […] If levels of E2 are too low to be quantified via this measure, and to distinguish naturally-produced from DHED prodrug-produced E2, E2 levels can be quantitated at the femtomole level utilizing deuterium-labelled E2 standards and triple quadrupole mass spectrometry.

Data set [4] deals with male mice. In words: Subthreshold social defeat stress (SSDS) followed by social interaction test. The class given is in vivo, mouse. The conditions noted are these: chronic treatment; gonadally intact male mice + SSDS. The protocol:
(§1) Subthreshold social defeat stress: Retired CD1 breeders are singly housed and used as aggressors. Experimental mice are introduced to the home cage of an aggressor for 2 min to initiate the physical attack phase. Afterward, mice are transferred and housed on the opposite side of the aggressor, in the same cage separated by a perforated Plexiglass divider for 15 mins in order to maintain sensory contact. This process is repeated 3 times over a period of ~50 min.
(§2) Social Interaction: Mice are placed in a rectangular box (40 cm length×30 cm width×35 cm height; Stoelting, IL) divided into three compartments (two equal-sized end-chambers and a middle chamber) for five minute habituation phase (10-15 lux). After the habituation phase, two small wire cages are introduced into the two end chambers, one containing an unfamiliar, non-aggressive CD1 mouse and the other remaining empty. The amount of time mice spent sniffing each cage during the five-min test is assessed using CleverSys tracking software (CleverSys, Inc, Reston VA, USA).
(§3) For the chronic administration paradigms, silastic tubes (1.02 mm inner diameter×2.16 mm outer diameter) were filled with testosterone (10 mm) or 17β-Estradiol (E2; 1,3 and 10 mm; Sigma-Aldrich, St. Louis, MO, USA). Silastic implants were primed in 0.9% saline at 37° C. overnight prior to their subcutaneous use. Letrozole (1 mg/kg/day; Sigma-Aldrich, St. Louis, MO, USA) was dissolved in propylene glycol (MP Biomedicals, Santa Ana, CA, USA) and administered through ALZET minipumps (Model 1002, 0.25 μl/hour, 14 days; Cupertino, CA, USA). DHED (synthesized using previously described methods) was dissolved in 0.9% saline and administered through ALZET minipumps (Model 1002, 0.25 μl/hour, 14 days; Cupertino, CA, USA) at a dose of […]. Flutamide was administered through 1.5 mg slow-release subcutaneous pellets (Innovative Research of America, Sarasota, FL, USA). For acute administration, 17β-Estradiol (E2; 10 and […]) was dissolved in sesame oil (4 ml/kg, s.c.; Sigma-Aldrich, St. Louis, MO, USA).
(§4) Retired CD1 breeders were singly housed and used as aggressors. Two days prior to the start of the experiment, experimental mice were also singly housed. The stress procedure was performed using previously described methods. Briefly, experimental mice were introduced to the home cage of an aggressor for 2 min to initiate the physical attack phase. Afterward, mice were transferred and housed on the opposite side of the aggressor, in the same cage separated by a perforated Plexiglass divider for 15 mins in order to maintain sensory contact. This process was repeated 3 times over a period of ~50 min. Following the completion of the third cycle, mice were placed back in their home cages.
(§5) Acute E2 was administered 45 min prior to the initiation of stress or 5 min after the completion of stress. For the optogenetic stimulation, ChR2 and YFP-injected mice received a 4 Hz, 5 ms pulse width, 10-15 mW 470 nm light stimulation for 45 min prior to the initiation of stress. This stimulation paradigm was shown previously to increase synaptic transmission. The optogenetic set up consisted of an LED driver paired with a fiber-coupled LED light source attached to a bifurcated optogenetic path cable (400 μm, 0.49 NA; ThorLabs, Newton NJ, USA).
as §2, with “Social interaction was performed 24 hours following subthreshold social defeat or inescapable foot-shock stress. For the habituation phase, mice were” for “Social Interaction: Mice are”, “five minutes” for “five minute habituation phase”, “cages were” for “cages are”, “test was” for “test is”

Data set [5] can be described thus: Body, testis and seminal vesicle weights after hormonal treatments. The class given is in vivo, mouse. To be noted: chronic treatment. The protocol: as §3
Subcutaneous implantations were performed during the same time as the orchiectomies. The surgical area was thoroughly cleaned with Betadine solution (10% povidone-iodine surgical scrub) followed by 70% ethanol. A small, approximately 1-cm incision was made between the scapulae using a pair of small sterile surgical scissors. Hemostats were then inserted and spread laterally to the incision to create a cavity in the subcutaneous space in which ALZET mini-osmotic pumps or silastic implants were inserted for continuous drug/vehicle delivery. The skin was closed with suturing.

Data set [6] concerns male mice. Description: Subthreshold social defeat stress followed by female urine sniffing test (anhedonia). To be noted: chronic treatment; gonadally intact male mice + SSDS. The class given is in vivo, mouse. The protocol:
as §1
Female Urine Preference Test: is performed 24 hours after the social interaction test as using previously described methods. The amount of time mice spent interacting with a cotton-tipped applicator soaked in either fresh male or female mouse urine during a total of 3 minutes is analyzed by an experimenter blind to the experimental groups.
as §3, §4, §5
FUST procedure was performed 24 hours after the social interaction test and 48 hours after stress. FUST was performed using previously described methods. The amount of time mice spent interacting with a cotton-tipped applicator soaked in either fresh male or female mouse urine during a total of 3 minutes was analyzed by an experimenter blind to the experimental groups.

Consider `N[C@@H](CCCP(=O)(O)O)C(=O)O` [APV], for which the “oPSCs in NAc of ERβ-cre mice with ChR2 in the BLA” value in data set [1] is on record as “blocked”.

As to `C[C@]12CC[C@H]3[C@@H](CCC4=CC(=O)CC[C@@]43C)[C@@H]1CC[C@@H]2OC(=O)[C@@H]1CCCN1C(=O)c1ccc(S(N)(=O)=O)cn1` [EC586], the “oral bioavailability of testosterone” value in data set [2] was “substantially enhance the oral bioavailability”.

Consider `CC(=O)O[C@H]1CC[C@H]2[C@@H]3CCC4=CC(=O)C=C[C@]4(O)[C@H]3CC[C@]12C` [Example 1.1, (8S,9S,10S,13S,14S,17S)-10-hydroxy-13-methyl-3-oxo-6,7,8,9,10,11,12,13,14,15,16,17-dodecahydro-3H-cyclopenta[a]phenanthren-17-yl acetate], for which, in data set [3] (mice (n=3), 5 mg/kg solution dose, IV), the “concentration level of the prodrug after IV administration” value is “very rapidly metabolized”. Besides, the “concentration level of the prodrug after PO administration” value in data set [3] (mice (n=3), 5 mg/kg solution dose, PO) was “cannot be detected”. The “conversion of the prodrug into DHED” value in data set [3] (mice, 5 mg/kg, IV or PO) is on record as “hydrolyzed into DHED”.

`NS(=O)(=O)c1cccc2c1c([N+](=O)[O-])cc1nc(O)c(O)nc12` [NBQX]: the “oPSCs in NAc of ERβ-cre mice with ChR2 in the BLA” value in data set [1] is “blocked”.

Take `CCCCCCCCCC(=O)O[C@H]1CC[C@H]2[C@@H]3CCC4=CC(=O)CC[C@]4(C)[C@H]3CC[C@]12C` [Testosterone-decanoate]: in data set [2], the “oral bioavailability of testosterone” value was “substantially enhance the oral bioavailability”.

On to `N#Cc1ccc(C(c2ccc(C#N)cc2)n2cncn2)cc1` [letrozole, Letrozole], for which, in data set [4], the “social interaction deficits following stress” value is “deficits in social interaction”. Moreover, in data set [5], the body weight entry is listed as “increased body weight”, the seminal vesicle weight result is “increased seminal vesicle weight” and the testis weight result is on record as “no difference in testes weight”. Moreover, the anhedonia following stress result in data set [6] is recorded as “induced a stress-susceptible phenotype”.

Values taken from patent US20260248809A1, “ESTRADIOL PRODRUGS AND METHODS OF USE THEREOF” (UNIVERSITY OF MARYLAND, BALTIMORE, priority 2022, published 2026).
